From the supplement of paper PMC10627819

What was measured:
B. subtilis 168 [1] = assay: fitness (endpoint OD595 vs no drug) (fraction); higher = more growth
Method in brief: (§1)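 Volumes were 30 µl per well, or 55 µl for S. pneumoniae, in 384-well plates inoculated at OD595 0.01. Media were TSB, LB Lennox or CY at 37 °C, and OD595 was read every 30 min for 14 h with first-reading background subtraction. Fitness is the ratio of optical density at stationary-phase entry to the robust mean of no-drug controls. That ratio is capped at 1.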

S. aureus DSM 20231 [2] = assay: as above
Method in brief: as §1

S. aureus Newman [3] = assay: as above
Method in brief: as §1

S. pneumoniae D39V [4] = assay: as above
Method in brief: as §1

B. subtilis 168 [5] = assay: Bliss interaction score (quartile over a dose matrix) (fitness difference); higher = more antagonism (negative = synergy)
Method in brief: (§2)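 Fitness was defined as normalised growth: OD595 at the start of stationary phase divided by the plate's robust no-drug mean and capped at 1. Single-drug fitness was inferred from combination measurements. The Bliss score is observed fitness minus the product of the single-drug values, summarised by quartiles across technical, biological and donor/recipient replicates.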

S. aureus DSM 20231 [6] = assay: as above
Method in brief: as §2

S. aureus Newman [7] = assay: as above
Method in brief: as §2

S. pneumoniae D39V [8] = assay: as above
Method in brief: as §2
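Wherever Bliss interaction score (quartile over a dose matrix) is given: first quartile when negative (synergy) and third quartile when positive (antagonism).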

CO/N=C(\C(=O)N[C@@H]1C(=O)N2C(C(=O)O)=C(COC(C)=O)CS[C@H]12)c1csc(N)n1 [Cefotaxime] + C[n+]1ccc(-c2cc[n+](C)cc2)cc1 [Paraquat]
fitness, one replicate
Conditions	partner 1.25 µg/mL	partner 2.5 µg/mL	partner 5 µg/mL
B. subtilis 168 [1], first compound 0.00775 µg/mL	0.847	0.764	0.596
B. subtilis 168 [1], first compound 0.0155 µg/mL	0.694	0.613	0.332
B. subtilis 168 [1], first compound 0.031 µg/mL	0.494	0.423	0.279
S. aureus DSM 20231 [2], first compound 0.039 µg/mL	0.729	0.775	0.767
S. aureus Newman [3], first compound 0.625 µg/mL	0.0489	0.0421	0.0459
S. aureus Newman [3], first compound 1.25 µg/mL	0.0645	0.0717	0.0769
S. aureus Newman [3], first compound 2.5 µg/mL	0.0777	0.0674	0.0627

fitness
Conditions	partner 1.25 µg/mL	partner 1.5 µg/mL	partner 2.5 µg/mL	partner 3 µg/mL	partner 5 µg/mL	partner 6 µg/mL
B. subtilis 168 [1], first compound 0.5 µg/mL	0.199	–	0.171	–	0.166	–
B. subtilis 168 [1], first compound 1 µg/mL	0.108	–	0.0698	–	0.0734	–
B. subtilis 168 [1], first compound 2 µg/mL	0.0929	–	0.0597	–	0.0873	–
S. aureus DSM 20231 [2], first compound 0.078 µg/mL	0.762	–	0.767	–	0.748	–
S. aureus DSM 20231 [2], first compound 0.156 µg/mL	0.656	–	0.704	–	0.703	–
S. aureus DSM 20231 [2], first compound 0.312 µg/mL	0.611	–	0.664	–	0.65	–
S. aureus Newman [3], first compound 0.078 µg/mL	0.694	–	0.688	–	0.702	–
S. aureus Newman [3], first compound 0.156 µg/mL	0.521	–	0.542	–	0.573	–
S. aureus Newman [3], first compound 0.312 µg/mL	0.304	–	0.314	–	0.29	–
S. pneumoniae D39V [4], first compound 0.0018 µg/mL	–	0.986	–	0.971	–	0.957
S. pneumoniae D39V [4], first compound 0.0035 µg/mL	–	0.992	–	≥ 1	–	0.962
S. pneumoniae D39V [4], first compound 0.007 µg/mL	–	0.944	–	0.93	–	0.843

Conditions	Bliss interaction score
B. subtilis 168 [5]	-0.0771
S. aureus DSM 20231 [6]	-0.0739
S. aureus Newman [7]	-0.0297
S. pneumoniae D39V [8]	-0.0531

CO/N=C(\C(=O)N[C@@H]1C(=O)N2C(C(=O)O)=C(COC(C)=O)CS[C@H]12)c1csc(N)n1 [Cefotaxime] + CN1C2=CC=CC=C2N=C3C1=CC=CC3=O [Pyocyanin]
fitness, one replicate
Conditions	partner 1.25 µg/mL	partner 2.5 µg/mL	partner 5 µg/mL
B. subtilis 168 [1], first compound 0.00775 µg/mL	0.775	0.712	0.534
B. subtilis 168 [1], first compound 0.0155 µg/mL	0.665	0.543	0.407
B. subtilis 168 [1], first compound 0.031 µg/mL	0.522	0.462	0.35
S. aureus DSM 20231 [2], first compound 0.039 µg/mL	0.748	0.738	0.512
S. aureus Newman [3], first compound 0.039 µg/mL	0.677	0.696	0.424
S. aureus Newman [3], first compound 0.625 µg/mL	0.0517	0.0483	0.0237
S. aureus Newman [3], first compound 1.25 µg/mL	0.0559	0.0861	0.0706
S. aureus Newman [3], first compound 2.5 µg/mL	0.0452	0.0518	0.0704

fitness
Conditions	partner 0.325 µg/mL	partner 0.65 µg/mL	partner 1.25 µg/mL	partner 1.3 µg/mL	partner 2.5 µg/mL	partner 5 µg/mL
B. subtilis 168 [1], first compound 0.5 µg/mL	–	–	0.291	–	0.264	0.229
B. subtilis 168 [1], first compound 1 µg/mL	–	–	0.144	–	0.102	0.111
B. subtilis 168 [1], first compound 2 µg/mL	–	–	0.0757	–	0.0908	0.0747
S. aureus DSM 20231 [2], first compound 0.078 µg/mL	–	–	0.746	–	0.766	0.55
S. aureus DSM 20231 [2], first compound 0.156 µg/mL	–	–	0.757	–	0.746	0.511
S. aureus DSM 20231 [2], first compound 0.312 µg/mL	–	–	0.676	–	0.671	0.474
S. aureus Newman [3], first compound 0.078 µg/mL	–	–	0.671	–	0.654	0.399
S. aureus Newman [3], first compound 0.156 µg/mL	–	–	0.527	–	0.552	0.354
S. aureus Newman [3], first compound 0.312 µg/mL	–	–	0.311	–	0.319	0.204
S. pneumoniae D39V [4], first compound 0.0018 µg/mL	0.992	≥ 1	–	0.904	–	–
S. pneumoniae D39V [4], first compound 0.0035 µg/mL	0.98	≥ 1	–	0.871	–	–
S. pneumoniae D39V [4], first compound 0.007 µg/mL	0.934	0.947	–	0.839	–	–

Conditions	Bliss interaction score
B. subtilis 168 [5]	0.0372
S. aureus DSM 20231 [6]	0.0641
S. aureus Newman [7]	0.0647
S. pneumoniae D39V [8]	0.0458

CO/N=C(\C(=O)N[C@@H]1C(=O)N2C(C(=O)O)=C(COC(C)=O)CS[C@H]12)c1csc(N)n1 [Cefotaxime] + COc1cccc2c1C(=O)c1c(O)c3c(c(O)c1C2=O)C[C@@](O)(C(=O)CO)C[C@@H]3O[C@H]1C[C@H](N)[C@H](O)[C@H](C)O1 [Doxorubicin]
fitness, one replicate
Conditions	first compound 0.00775 µg/mL	first compound 0.0155 µg/mL	first compound 0.031 µg/mL	first compound 0.0625 µg/mL	first compound 0.125 µg/mL	first compound 0.25 µg/mL	first compound 0.625 µg/mL	first compound 1.25 µg/mL	first compound 2.5 µg/mL
B. subtilis 168 [1], partner 0.625 µg/mL	0.844	0.659	0.476	0.382	0.227	0.187	–	–	–
B. subtilis 168 [1], partner 1.25 µg/mL	0.771	0.571	0.371	0.337	0.232	0.196	–	–	–
B. subtilis 168 [1], partner 2.5 µg/mL	0.35	0.0312	0.0055	0.0527	0.048	0.0308	–	–	–
S. aureus Newman [3], partner 0.625 µg/mL	–	–	–	–	–	–	0.0853	0.0304	0.0624
S. aureus Newman [3], partner 1.25 µg/mL	–	–	–	–	–	–	0.0701	0.0126	0.0183
S. aureus Newman [3], partner 2.5 µg/mL	–	–	–	–	–	–	0.0451	0	0.0123

Conditions	fitness
B. subtilis 168 [1], first compound 0.5 µg/mL, partner 0.625 µg/mL	0.183
B. subtilis 168 [1], first compound 0.5 µg/mL, partner 1.25 µg/mL	0.16
B. subtilis 168 [1], first compound 0.5 µg/mL, partner 2.5 µg/mL	0.0662
B. subtilis 168 [1], first compound 1 µg/mL, partner 0.625 µg/mL	0.106
B. subtilis 168 [1], first compound 1 µg/mL, partner 1.25 µg/mL	0.0654
B. subtilis 168 [1], first compound 1 µg/mL, partner 2.5 µg/mL	0.0366
B. subtilis 168 [1], first compound 2 µg/mL, partner 0.625 µg/mL	0.0861
B. subtilis 168 [1], first compound 2 µg/mL, partner 1.25 µg/mL	0.0715
B. subtilis 168 [1], first compound 2 µg/mL, partner 2.5 µg/mL	0.0755
S. aureus DSM 20231 [2], first compound 0.039 µg/mL, partner 0.625 µg/mL	0.717
S. aureus DSM 20231 [2], first compound 0.039 µg/mL, partner 1.25 µg/mL	0.707
S. aureus DSM 20231 [2], first compound 0.039 µg/mL, partner 2.5 µg/mL	0.633
S. aureus DSM 20231 [2], first compound 0.078 µg/mL, partner 0.625 µg/mL	0.67
S. aureus DSM 20231 [2], first compound 0.078 µg/mL, partner 1.25 µg/mL	0.67
S. aureus DSM 20231 [2], first compound 0.078 µg/mL, partner 2.5 µg/mL	0.589
S. aureus DSM 20231 [2], first compound 0.156 µg/mL, partner 0.625 µg/mL	0.602
S. aureus DSM 20231 [2], first compound 0.156 µg/mL, partner 1.25 µg/mL	0.613
S. aureus DSM 20231 [2], first compound 0.156 µg/mL, partner 2.5 µg/mL	0.583
S. aureus DSM 20231 [2], first compound 0.312 µg/mL, partner 0.625 µg/mL	0.537
S. aureus DSM 20231 [2], first compound 0.312 µg/mL, partner 1.25 µg/mL	0.61
S. aureus DSM 20231 [2], first compound 0.312 µg/mL, partner 2.5 µg/mL	0.572
S. aureus Newman [3], first compound 0.078 µg/mL, partner 0.625 µg/mL	0.613
S. aureus Newman [3], first compound 0.078 µg/mL, partner 1.25 µg/mL	0.68
S. aureus Newman [3], first compound 0.078 µg/mL, partner 2.5 µg/mL	0.663
S. aureus Newman [3], first compound 0.156 µg/mL, partner 0.625 µg/mL	0.563
S. aureus Newman [3], first compound 0.156 µg/mL, partner 1.25 µg/mL	0.592
S. aureus Newman [3], first compound 0.156 µg/mL, partner 2.5 µg/mL	0.618
S. aureus Newman [3], first compound 0.312 µg/mL, partner 0.625 µg/mL	0.458
S. aureus Newman [3], first compound 0.312 µg/mL, partner 1.25 µg/mL	0.45
S. aureus Newman [3], first compound 0.312 µg/mL, partner 2.5 µg/mL	0.408
S. pneumoniae D39V [4], first compound 0.0018 µg/mL, partner 0.25 µg/mL	0.944
S. pneumoniae D39V [4], first compound 0.0018 µg/mL, partner 0.5 µg/mL	0.963
S. pneumoniae D39V [4], first compound 0.0018 µg/mL, partner 1 µg/mL	0.863
S. pneumoniae D39V [4], first compound 0.0035 µg/mL, partner 0.25 µg/mL	0.929
S. pneumoniae D39V [4], first compound 0.0035 µg/mL, partner 0.5 µg/mL	0.944
S. pneumoniae D39V [4], first compound 0.0035 µg/mL, partner 1 µg/mL	0.831
S. pneumoniae D39V [4], first compound 0.007 µg/mL, partner 1 µg/mL	0.731

Conditions	Bliss interaction score
B. subtilis 168 [5]	-0.17
S. aureus DSM 20231 [6]	-0.086
S. aureus Newman [7]	0.0946
S. pneumoniae D39V [8]	0.0436
